According to patent publication US9540691B2, “Assays and methods for selecting a treatment regimen for a subject with depression” (THE GENERAL HOSPITAL CORPORATION, priority 2011, dated 2017):
Where two headings read alike, the source gives them in different places.

Legend:
[1] = system: MDD patients with at least one rare variant in an indicated SNP biomarker; settings: with an SSRI
[2] = system: patients with major depressive disorder (MDD) resistant to treatment with SSRIs
Source text: Using the sequential parallel design […] For those randomly assigned to the placebo/placebo sequence, both responders and non-responders to placebo during the first phase (n=25) remain on placebo during the second phase. […] Data from the previous double-blind, placebo-controlled study (Trial 1) can be pooled into the instant study (Trial 2) to provide a more accurate estimate of the placebo effect size, with a weighted average from the two Phases 1 (one from Trial 1 and one from Trial 2) and two Phases 2 (one from Trial 1 and one from Trial 2).
The primary efficacy measure can include the change in 17-item Hamilton Rating Scale for Depression (HAM-D-17) score. […] A remission is, for example, defined as a HAM-D-17 score less than 8 at endpoint. Secondary measures of efficacy can include change in CGI-severity, with “clinical response defined” as CGI-S of 1 or 2 at endpoint. Patients with a CGI-I score greater than 5 at any post baseline visit or a 50 percent or greater worsening of depressive symptoms from baseline to that visit are discontinued from the study. Subjects are also discontinued from the study with any emergence of suicidality, homicidality, mania, or psychosis. Additional exemplary instruments that can be administered according to the study schedule include the following: • (1) Structured Clinical Interview for DSM-IV: The SCID-I/P, administered by the clinician, proceeds by modules to diagnose the different Axis I disorders. Questions are asked exactly as written, and each is based on the individual criteria from DSM-IV. Answers are generally rated on a scale of 1-3 (1=doubtful, 2=probable, 3=definite), and, based on the number of positive answers, a diagnosis is determined by a clinician. While the entire SCID-UP is administered at screen, the mood module is administered at each follow up visit. • (2) The MGH Antidepressant Treatment History Questionnaire (MGH-ATR): The MGH-ATR provides specific criteria for the adequate dose and adequate length of a trial for it to be considered a failure, thus allowing clinicians to systematically collect data aimed at assessing the degree of treatment-resistance of the current major depressive episode. • (3) The 28-item Hamilton Depression Scale (HAM-D-28): This version allows scoring of the HAM-D-17, 21-, 25-, and 28-item scales. This instrument is completed by the clinician by using a structured interview and defined anchor points, and aims to quantify the degree of depression over the past 7 days. The HAM-D is the most widely studied instrument for depression, and its reliability and validity are high. • (4) Clinical Global Impressions-Severity and Improvement (CGI-S, CGI-I): These two instruments are scored 1-7 by the clinician based on assessment of the patient's clinical status. They measure, based on history and scores on other instruments: a) Depressive severity (CGI-S) and b) Clinical Improvement (CGI-I). […] Safety Measurements
Data are entered and error-checked at each clinical site involved in the study. Study staff and subjects may have the option to enter self-evaluations into the system directly using DatStat Illume™. The process of data entry is supervised by the DCRP staff. Once the data set is entered and checked, analyses are conducted. Both a completer analysis of all patients finishing the trial and an intent-to-treat analysis examining all patients enrolled into the trial are used to define the severity of depression at endpoint. Examination of both study completers and all patients randomized can provide the broadest assessment of the effects of treatment in trials of such kind. The data from Trial 2 can be pooled with those from Trial 1 with the sequential parallel comparison design, to provide an estimate of the placebo response based on a larger sample size. […] Let p1, q1 be the response rates to the first administration of drug and placebo respectively and let p2, q2 be the responses rates to the second treatment.

[3] = CACNA1C rs1006737 (AG), 13(30, 16)
[4] = COMT (Val 158) rs4633 (CC), 22(18, 9)
[5] = COMT (Val 158 Met) rs4680 (GG), 33(17, 9)
[6] = DAT (SLC6A3) rs250682 (CG), 33(33, 15)
[7] = DNMT38 rs1883729 (AG), 11(13, 8)
[8] = DNMT38 rs1883729 (AG), 11/13(32, 18)
[9] = DNMT38 rs1883729 (AG), 13(19, 10)
[10] = DRD2 (H313H) rs6275 (TT), 11(10, 5)
[11] = DRD2 (SLC26A9) rs11240594 (AG), 33(36, 20)
[12] = DRD2 (Taql Br) rs1079596 (TC), 42(18, 11)
[13] = DRD2 (Taql Br) rs1079596 (TC), 42/44(18, 11)
[14] = FDRC rs2277820 (TC), 22(30, 15)
[15] = GCHFR rs7163862 (TA), 41(37, 20)
[16] = GCHI rs8007267 (TC), 42(22, 10)
[17] = GCPH or FOLH1 rs202676 (AG), 31(23, 9)
[18] = MTHFD 1 G1958A (R653Q) rs2236225 (AG), 33(28, 16)
[19] = MTHFR G1793A rs2274976 (GA), 42(19, 5)
[20] = PCYT1A rs7639752 (AA), 11(12, 7)
[21] = RCF1 A > G rs2297291 (AA), 11(12, 7)
[22] = RCF2 (in SLC19A3) rs12659 (TT), 11(10, 7)
[23] = RCFI (in SLC19A1) rs1051266 (AA), 44(11, 6)
[24] = 7.5 mg/day adjunct to SSRI, Phase 1
[25] = 7.5 mg/day adjunct to SSRI, Phase 2 (Phase 1 completers/non-responders only)
[26] = 7.5 mg/day adjunct to SSRI, pooled Phases 1 and 2 (SPCD)

CN1c2c(nc(N)[nH]c2=O)NC[C@@H]1CNc1ccc(C(=O)N[C@@H](CCC(=O)O)C(=O)O)cc1 [6(S)-5-MTHF, 6(S)-5-methyltetrahydrofolate]
EFFECT on change in HAMD-28, PHASE I [1, 3]: −8.006 | EFFECT on change in HAMD-28, PHASE II [1, 3]: −2.467 | EFFECT on change in HAMD-28, POOLED PHASES [1, 3]: −4.633 | EFFECT on change in HAMD-28, PHASE I [1, 4]: −10.070 | EFFECT on change in HAMD-28, PHASE II [1, 4]: −10.170 | EFFECT on change in HAMD-28, POOLED PHASES [1, 4]: −9.240 | EFFECT on change in HAMD-28, PHASE I [1, 5]: −12.070 | EFFECT on change in HAMD-28, PHASE II [1, 5]: −10.170 | EFFECT on change in HAMD-28, POOLED PHASES [1, 5]: −10.880 | EFFECT on change in HAMD-28, PHASE I [1, 6]: −5.722 | EFFECT on change in HAMD-28, PHASE II [1, 6]: −5.768 | EFFECT on change in HAMD-28, POOLED PHASES [1, 6]: −4.996 | EFFECT on change in HAMD-28, PHASE I [1, 7]: −2.318 | EFFECT on change in HAMD-28, PHASE II [1, 7]: −5.267 | EFFECT on change in HAMD-28, POOLED PHASES [1, 7]: −4.811 | EFFECT on change in HAMD-28, PHASE I [1, 8]: −6.340 | EFFECT on change in HAMD-28, PHASE II [1, 8]: −4.940 | EFFECT on change in HAMD-28, POOLED PHASES [1, 8]: −5.360 | EFFECT on change in HAMD-28, PHASE I [1, 9]: −8.097 | EFFECT on change in HAMD-28, PHASE II [1, 9]: −4.667 | EFFECT on change in HAMD-28, POOLED PHASES [1, 9]: −6.748 | EFFECT on change in HAMD-28, PHASE I [1, 10]: −16.560 | EFFECT on change in HAMD-28, PHASE II [1, 10]: 1.667 | EFFECT on change in HAMD-28, POOLED PHASES [1, 10]: −7.627 | EFFECT on change in HAMD-28, PHASE I [1, 11]: −5.018 | EFFECT on change in HAMD-28, PHASE II [1, 11]: −3.424 | EFFECT on change in HAMD-28, POOLED PHASES [1, 11]: −3.758 | EFFECT on change in HAMD-28, PHASE I [1, 12]: −10.640 | EFFECT on change in HAMD-28, PHASE II [1, 12]: −3.893 | EFFECT on change in HAMD-28, POOLED PHASES [1, 12]: −6.903 | EFFECT on change in HAMD-28, PHASE I [1, 13]: −10.640 | EFFECT on change in HAMD-28, PHASE II [1, 13]: −3.893 | EFFECT on change in HAMD-28, POOLED PHASES [1, 13]: −6.903 | EFFECT on change in HAMD-28, PHASE I [1, 14]: −2.634 | EFFECT on change in HAMD-28, PHASE II [1, 14]: −6.232 | EFFECT on change in HAMD-28, POOLED PHASES [1, 14]: −4.027 | EFFECT on change in HAMD-28, PHASE I [1, 15]: −6.380 | EFFECT on change in HAMD-28, PHASE II [1, 15]: −4.542 | EFFECT on change in HAMD-28, POOLED PHASES [1, 15]: −4.863 | EFFECT on change in HAMD-28, PHASE I [1, 16]: −7.729 | EFFECT on change in HAMD-28, PHASE II [1, 16]: −5.417 | EFFECT on change in HAMD-28, POOLED PHASES [1, 16]: −6.654 | EFFECT on change in HAMD-28, PHASE I [1, 17]: −7.314 | EFFECT on change in HAMD-28, PHASE II [1, 17]: −3.300 | EFFECT on change in HAMD-28, POOLED PHASES [1, 17]: −5.402 | EFFECT on change in HAMD-28, PHASE I [1, 18]: −2.742 | EFFECT on change in HAMD-28, PHASE II [1, 18]: −3.762 | EFFECT on change in HAMD-28, POOLED PHASES [1, 18]: −3.496 | EFFECT on change in HAMD-28, PHASE I [1, 19]: −5.333 | EFFECT on change in HAMD-28, PHASE II [1, 19]: 2.833 | EFFECT on change in HAMD-28, POOLED PHASES [1, 19]: −5.551 | EFFECT on change in HAMD-28, PHASE I [1, 20]: −10.400 | EFFECT on change in HAMD-28, PHASE II [1, 20]: −3.900 | EFFECT on change in HAMD-28, POOLED PHASES [1, 20]: −6.216 | EFFECT on change in HAMD-28, PHASE I [1, 21]: −8.778 | EFFECT on change in HAMD-28, PHASE II [1, 21]: −1.400 | EFFECT on change in HAMD-28, POOLED PHASES [1, 21]: −5.458 | EFFECT on change in HAMD-28, PHASE I [1, 22]: −7.571 | EFFECT on change in HAMD-28, PHASE II [1, 22]: −1.400 | EFFECT on change in HAMD-28, POOLED PHASES [1, 22]: −4.860 | EFFECT on change in HAMD-28, PHASE I [1, 23]: −10.000 | EFFECT on change in HAMD-28, PHASE II [1, 23]: −2.750 | EFFECT on change in HAMD-28, POOLED PHASES [1, 23]: −7.673 | efficacy as an adjunct to the SSRIs (in words) ([2]; 7.5 mg/day): not effective | CGI-S Mean score reduction (SD) [2, 24]: −0.5 (0.9) | HDRS-17 % Remission [2, 24]: 11.1% (4) | HDRS-17 % Response [2, 24]: 19.8% (7) | HDRS-17 Mean score reduction (SD) [2, 24]: −4.3 (5.0) | QIDS-SR % Remission [2, 24]: 0.0% (0) | QIDS-SR % Responsive [2, 24]: 25.0% (9) | QIDS-SR Mean score reduction (SD) [2, 24]: −4.6 (5.1) | CGI-S Mean score reduction (SD) [2, 25]: −0.5 (0.7) | HDRS-17 % Remission [2, 25]: 14.2% (5) | HDRS-17 % Response [2, 25]: 17.1% (6) | HDRS-17 Mean score reduction (SD) [2, 25]: −3.1 (4.2) | QIDS-SR % Remission [2, 25]: 8.5% (3) | QIDS-SR % Responsive [2, 25]: 8.5% (3) | QIDS-SR Mean score reduction (SD) [2, 25]: 4.8 (4.1) | CGI-S Mean score reduction [2, 26]: −0.53 | HDRS-17 Mean score reduction [2, 26]: −3.70 | QIDS-SR % Remission [2, 26]: 4.3% | QIDS-SR % Responsive [2, 26]: 19.8% | QIDS-SR Mean score reduction [2, 26]: −0.25 | increase in response and remission rate compared to placebo with SSRIs ([2]; 15 mg/day in second phase, drug/drug sequence): at least 2 fold | response and remission rate ([2]; dose increased from 7.5 to 15 mg/day in second phase, drug/drug sequence, placebo with SSRIs 9%, p=0.1): 24%
